Patent US9597407B2, “Targeted antimicrobial moieties” (C3 Jian, Inc., priority 2009, dated 2017)
Entries after “also recorded” stand apart in the source; their conditions may differ.

Columns and labels:
bacteria = experiment: Binding of targeting peptides to microorganisms (Table 3); conditions: preferably 1x PBS; for Target(s) (microorganisms bound by the targeting peptide) / Target(s) (microorganism bound by the targeting peptide): peptide binding in aqueous buffers that varied depending on peptide solubility
microorganisms [1] = experiment: Morphology, biofilm and growth disruption by peptides (Table 5); assay type: cell-based; design: key: A: Peptide aggregates; B: Less hyphal formation; Clumps; Diffuse clumps and small polyps; F: Diffuse growth; H: Thin; I: Growth inhibition; Microcolony formation; Rippled; Small polyps; Thick; W: Halo formation on top, microlonies on bottom
Text: In certain embodiments peptides that induce alterations in phenotype or other biological activities can also be used as antimicrobial effector moieties.

microorganisms [2] = experiment: Peptide activities: binding, antimicrobial, growth or phenotype altering (Table 8)
Text: In certain embodiments, peptides described herein can have multiple activities. Thus for example, a peptide can have both binding/targeting activity and antimicrobial activity. Such peptides can be used, e.g., in a chimeric construct, for any or all of these properties. Thus, for example, a peptide designated “B” in Table 8 can be used as a targeting peptide. If it is also designated G or M it can also be used for antimicrobial activity.

[3] = microorganism the targeting peptide binds, binding in aqueous buffers that varied with peptide solubility
[4] = microorganism bound by the targeting peptide, binding in aqueous buffers chosen by peptide solubility

| Substance | Target(s) (bacteria; [3]) | Organism, effect (microorganisms [1]; MRSA) | Organism, effect (microorganisms [1]; S. epidermidis) | Activities (microorganisms [2]) | other results |
| --- | --- | --- | --- | --- | --- |
| PF-048 (LYFAFKKYQERVNQAPNIEY; Peptide with targeting and/or antimicrobial activity) | S. epidermidis and M. luteus and E. coli and MRSA and C. jeikeium and C. jejuni | MRSA (W) | S. epidermidis (D) | G B | Organism, effect (microorganisms [1]; C. jeikeium): C. jeikeium (S) |
| PF-360 (MEQKVKVIFVPRSKPDNQLKTFVSAVLFKA; Peptide with targeting and/or antimicrobial activity) |  | MRSA (H) | S. epidermidis (S) | G B | Target(s) (bacteria; [4]): S. epidermidis; also recorded: B. subtilis; also recorded: E. coli; also recorded: P. aeruginosa; also recorded: C. albicans; also recorded: E. faecalis; also recorded: C. jeikeium; also recorded: C. jejuni; Organism, effect (microorganisms [1]; E. coli): E. coli (C) |
| PF-464 (VDMVNRFLGN; Peptide with targeting and/or antimicrobial activity) |  |  |  | G B | Target(s) (microorganisms bound by the targeting peptide) (bacteria): S. epidermidis and C. albicans and MRSA and S. pneumoniae and E. faecalis and C. jeikeium and C. jejuni; Organism, effect (morphology, biofilm and growth disruption) (microorganisms [1]; S. pneumoniae): S. pneumoniae (S) |
| PF-061 (GYNSYKAVQDVKTHSEEQRVTAKK; Peptide with targeting and/or antimicrobial activity) | S. epidermidis; also recorded: S. pneumoniae |  | S. epidermidis (R) | G B | Organism, effect (microorganisms [1]; B. subtilis): B. subtilis (R); Organism, effect (microorganisms [1]; C. jejuni): C. jejuni (R); Organism, effect (microorganisms [1]; S. pneumoniae): S. pneumoniae (R) |
| PF-757 (chain 1 PQAISSVQQNA; chain 2 PQAISSVQQNA; Peptide with targeting and/or antimicrobial activity) |  |  |  | G B | Target(s) (microorganism bound by the targeting peptide) (bacteria): M. luteus and C. albicans and MRSA; Organism, effect (morphology, biofilm and growth disruption) (microorganisms [1]; S. pneumoniae): S. pneumoniae (H) |
| PF-064 (DYYGKE; Peptide with targeting and/or antimicrobial activity) | E. coli | MRSA (M) | S. epidermidis (D) | G B |  |
| PF-554 (AKNFLTRTAEEIGEQAVREGNINGP; Peptide with targeting and/or antimicrobial activity) |  |  |  | G B | Target(s) (microorganisms bound by the targeting peptide) (bacteria): S. pneumoniae; Organism, effect (morphology, biofilm and growth disruption) (microorganisms [1]; B. subtilis): B. subtilis (D) |
| PF-484 (HKKDIRKQVFKN; Peptide with targeting and/or antimicrobial activity) |  |  |  | G B | Target(s) (microorganisms bound by the targeting peptide) (bacteria): S. epidermidis; also recorded: M. luteus; also recorded: P. mirabilis; also recorded: E. coli; also recorded: E. faecalis; also recorded: C. jeikeium; also recorded: C. jejuni; Organism, effect (morphology, biofilm and growth disruption) (microorganisms [1]; E. faecalis): E. faecalis (A) |
| PF-052 (QELINEAVNLLVKSK; Peptide with targeting and/or antimicrobial activity) | S. epidermidis and M. luteus and E. coli and MRSA and E. faecalis and C. jeikeium and C. jejuni | MRSA (R) | S. epidermidis (S) | G B | Organism, effect (microorganisms [1]; C. jeikeium): C. jeikeium (D); Organism, effect (microorganisms [1]; M. luteus): M. luteus (A) |
| PF-043 (MIKNETAYQMNELLVIRSAYAK; Peptide with targeting and/or antimicrobial activity) | M. luteus; also recorded: C. jejuni | MRSA (R) | S. epidermidis (D) | G B | Organism, effect (microorganisms [1]; C. jeikeium): C. jeikeium (A); Organism, effect (microorganisms [1]; M. luteus): M. luteus (C) |
| PF-422 (MSRKKYENDEKSQKKLKIGRKSDVFYGIID; Peptide with targeting and/or antimicrobial activity) |  |  |  | G B | Target(s) (microorganisms bound by the targeting peptide) (bacteria): C. albicans and MRSA and C. jeikeium; Organism, effect (morphology, biofilm and growth disruption) (microorganisms [1]; C. jejuni): C. jejuni (R); Organism, effect (morphology, biofilm and growth disruption) (microorganisms [1]; E. faecalis): E. faecalis (R); Organism, effect (morphology, biofilm and growth disruption) (microorganisms [1]; MRSA): MRSA (C); Organism, effect (morphology, biofilm and growth disruption) (microorganisms [1]; S. epidermidis): S. epidermidis (R); Organism, effect (morphology, biofilm and growth disruption) (microorganisms [1]; S. pneumoniae): S. pneumoniae (C) |
| PF-563 (RPELDNELDVVQNSASLDKLQASYN; Peptide with targeting and/or antimicrobial activity) |  |  |  | G B | Target(s) (microorganisms bound by the targeting peptide) (bacteria): S. epidermidis; also recorded: M. luteus; also recorded: C. jeikeium; Organism, effect (morphology, biofilm and growth disruption) (microorganisms [1]; B. subtilis): B. subtilis (D); Organism, effect (morphology, biofilm and growth disruption) (microorganisms [1]; C. jejuni): C. jejuni (H); Organism, effect (morphology, biofilm and growth disruption) (microorganisms [1]; S. pneumoniae): S. pneumoniae (H) |
| PF-127 (MLRYLSLFAVGLATGYAWGWIDGLAASLAV; Peptide with targeting and/or antimicrobial activity) |  |  | S. epidermidis (M) | G B | Target(s) (bacteria; [4]): S. epidermidis and M. luteus and E. coli and P. aeruginosa and C. albicans and MRSA and S. pneumoniae and E. faecalis; Organism, effect (microorganisms [1]; C. jeikeium): C. jeikeium (A); Organism, effect (microorganisms [1]; M. luteus): M. luteus (A) |
| PF-C098 (PETKGKVSAFVFGIVVANVIAVVYILYMLREIGIIQ; Peptide with targeting and/or antimicrobial activity) |  |  |  | G B | Target(s) (microorganism bound by the targeting peptide) (bacteria): A. naeslundii; also recorded: F. nucleatum; also recorded: P. gingivalis; also recorded: S. mutans; also recorded: T. denticola; Organism, effect (morphology, biofilm and growth disruption) (microorganisms [1]; F. nucleatum): F. nucleatum (T); Organism, effect (morphology, biofilm and growth disruption) (microorganisms [1]; S. mutans): S. mutans (F) |
| PF-378 (ESAKSNLNFLMQEEWALFLLL; Peptide with targeting and/or antimicrobial activity) |  | MRSA (M) | S. epidermidis (M) | G B | Target(s) (bacteria; [4]): B. subtilis; also recorded: B. fragilis; also recorded: E. coli; also recorded: P. aeruginosa; also recorded: C. jeikeium |
| PF-738 (chain 1 KSGATSAASGAKSGASS; chain 2 KSGATSAASGAKSGASS; Peptide with targeting and/or antimicrobial activity) |  |  |  | G B | Target(s) (microorganism bound by the targeting peptide) (bacteria): S. epidermidis; also recorded: C. albicans; also recorded: C. jeikeium; Organism, effect (morphology, biofilm and growth disruption) (microorganisms [1]; MRSA): MRSA (M) |
| PF-021 (FSLNFSKQKYVTVN; Peptide with targeting and/or antimicrobial activity) | S. epidermidis; also recorded: M. luteus; also recorded: P. mirabilis; also recorded: E. coli; also recorded: C. albicans; also recorded: E. faecalis; also recorded: C. jeikeium | MRSA (R) | S. epidermidis (A) | G B | Organism, effect (microorganisms [1]; C. jeikeium): C. jeikeium (R); Organism, effect (microorganisms [1]; M. luteus): M. luteus (A) |
| PF-392 (DPAGCNDIVRKYCK; Peptide with targeting and/or antimicrobial activity) |  | MRSA (S) |  | G B | Target(s) (microorganisms bound by the targeting peptide) (bacteria): S. epidermidis; also recorded: B. subtilis; also recorded: S. pneumoniae; also recorded: C. jeikeium; also recorded: C. jejuni; Organism, effect (microorganisms [1]; C. jejuni): C. jejuni (A); Organism, effect (microorganisms [1]; E. faecalis): E. faecalis (A) |
| PF-381 (QGANPCQQVGFTVNDPDCRLAKTV; Peptide with targeting and/or antimicrobial activity) |  | MRSA (C) | S. epidermidis (C) | G B | Target(s) (bacteria; [4]): E. coli; also recorded: P. aeruginosa; also recorded: C. jejuni; Organism, effect (microorganisms [1]; E. coli): E. coli (R); Organism, effect (microorganisms [1]; E. faecalis): E. faecalis (C) |
| PF-011 (MFCYYKQHKGDNFSIEEVKNIIADNEMKVN; Peptide with targeting and/or antimicrobial activity) | M. luteus; also recorded: E. coli; also recorded: P. aeruginosa; also recorded: S. pneumoniae; also recorded: C. jeikeium | MRSA (R) |  | G B | Organism, effect (microorganisms [1]; C. jeikeium): C. jeikeium (C) |
| PF-382 (KYKCSWCKRVYTLRKDHKTAR; Peptide with targeting and/or antimicrobial activity) |  | MRSA (M) |  | G B | Target(s) (bacteria; [4]): S. epidermidis; also recorded: B. subtilis; also recorded: B. fragilis; also recorded: E. coli; also recorded: P. aeruginosa; also recorded: E. faecalis; also recorded: C. jeikeium; also recorded: C. jejuni |
| PF-621 (chain 1 PPSSFLV; chain 2 PPSSFLV; Peptide with targeting and/or antimicrobial activity) |  |  |  | G B | Target(s) (microorganism bound by the targeting peptide) (bacteria): S. epidermidis; also recorded: C. albicans; Organism, effect (morphology, biofilm and growth disruption) (microorganisms [1]; E. faecalis): E. faecalis (H); Organism, effect (morphology, biofilm and growth disruption) (microorganisms [1]; S. pneumoniae): S. pneumoniae (I) |
| PF-035 (SFYESY; Peptide with targeting and/or antimicrobial activity) | S. epidermidis and M. luteus and E. coli and C. albicans and MRSA and C. jeikeium and C. jejuni | MRSA (M) |  | G B |  |
| PF-760 (chain 1 DHITLDDYEIHDGFNFELYYG; chain 2 DHITLDDYEIHDGFNFELYYG; Peptide with targeting and/or antimicrobial activity) |  |  |  | G B | Target(s) (microorganism bound by the targeting peptide) (bacteria): S. epidermidis; also recorded: M. luteus; Organism, effect (morphology, biofilm and growth disruption) (microorganisms [1]; MRSA): MRSA (M); Organism, effect (morphology, biofilm and growth disruption) (microorganisms [1]; S. epidermidis): S. epidermidis (M); Organism, effect (morphology, biofilm and growth disruption) (microorganisms [1]; S. pneumoniae): S. pneumoniae (C) |
